# Laboratory results from US10792331B2, “Methods for reducing cardiotoxicity from chemotherapy by administering humanin analog compositions” (LOS ANGELES BIOMEDICAL RESEARCH INSTITUTE AT HARBOR-UCLA …, priority 2015, dated 2020).
# “Also recorded” adds a separate entry of the source. Read-outs that look alike come from different tables or passages of the source. Ends that are not written are not given here.
# Assays:
# cardiomyocytes [1] = assay: Example 3: cardiomyocyte apoptosis by tropomyosin/TUNEL co-localization; conditions: for cardiomyocytes apoptosis: ten weeks, compared to control
# [2] = patients with cancer, cited from earlier work
# [3] = Example 3: outcome and general health (deaths, body weight, heart weight)
# cardiac fibrosis [4] = assay: Example 3: Masson's Trichrome quantification of fibrosis in hearts; conditions: for cardiac fibrosis: compared to controls
# [5] = Example 1: DOX ± HNG in B16 cell transplanted mice study, body weight and survival; conditions: for Body weight: B16 inoculated C57BL/6 male mice, DOX 5 mg/Kg weekly IP, HNG 5 mg/Kg daily IP
# Method: Mouse B16 melanoma cells were cultured in 75 cm^2 flasks and incubated at 37° C. in a humidified chamber with 5% CO2 to generate enough cells for inoculating 10,000 cells/mouse×40 mice. After 5-7 days culture, B16 cells were collected and cell viability determined using the Trypan Blue stain and the number of living cells were counted under microscope.
# Treatment Schedule: 7 weeks old C57BL/6 male mouse, control without tumor inoculation (n=6) and four other groups (n=10 each group) received B16 tumor cells (10,000/mouse) injection under the skin in the right flank. One group was not treated; another group received HNG IP injection, 5 mg/Kg BM, daily×40 days (HNG); the third group received Doxorubicin (DOX), IP injection, 5 mg/Kg BW, weekly×6 injections; and the last group DOX+HNG (Table 5).
# The mice in the DOX treated group would receive 6 weekly injections of DOX and daily injection of HNG until Day 40. Body weights and tumor cell injection site were checked 3 times per week. Echocardiogram was scheduled at day 26 and repeated at day 40. Twenty four hours after echocardiogram examination, animals were sacrificed; whole blood, plasma, epididymis, heart, lung, testis, liver, spleen, kidney, intestine, muscle, skin, and femur bone were collected. Sperm in the cauda epididymis were counted and COMET assay for DNA damage of sperm assessed. Whole blood was collected for CBC analysis and plasma saved for measurement of HNG level or other bio-parameters. Testes were fixed in Bouin's or formaldehyde for immunohistochemistry and TUNEL analyses.
# [6] = system: nuclear-gene-encoded mitochondrial gene expression; assay: Example 3: mitochondrial gene focused qRT-PCR array of mouse hearts
# [7] = system: DOX induced cardiotoxicity; assay: Example 2: echocardiogram ejection fraction, Dox, HNG and DRZ alone or in combinations; format: in vivo, mouse
# Method: In this second experiment, adult male mice were used. These mice received for 8 weeks IP injections of saline daily (control), Doxorubicin (DOX 3 mg/week IP for 8 injections), HNG 5 mg/day IP), Dexrazoxane (DRZ 60 mg/week IP at the same time as Doxorubicin) either alone or in combinations as shown in FIG. 5. All animals received 8 weeks of injections.
# [8] = system: Atrial Natriuretic Factor (ANF); assay: Example 3: real-time PCR of ANF transcripts in left ventricular tissue; conditions: for expression levels of ANF mRNA: heart, compared to control
# [9] = system: uncoupling protein 2 (Ucp2); assay: Example 3: Ucp2 protein by ProteinSimple (Wes) assay in ventricle lysates; format: in vivo, mouse
# Method: Left ventricle samples from mice were sonicated in RIPA buffer (Sigma) supplemented with EDTA-free protease inhibitor cocktail tablets (Roche), and cell debris removed by centrifugation. The protein concentration was analyzed by Bio-Rad Protein Assay and measured by Beckman Du-640 Spectrophotometer.
# Protein measurement for the uncoupling protein 2 (Ucp2) was performed using ventricle tissue lysates from control, Dox only, Dox+HNG, Dox+DRZ, and Dox+HNG+DRZ treated mice. Protein expression was quantified by Wes Separation Module with 25 Capillary Cartridges for 12-230 kDa (Wes®). Proteins (4 microgram/sample) were separated through a size-resolving matrix in capillaries, immobilized to the inner capillary wall, incubated with anti-Ucp2 rabbit monoclonal antibody (Cell Signaling) at concentration of 1 μg/ml and anti-rabbit secondary antibodies before detection using chemiluminescence. Signals reflected as the area under the curve of Ucp2 protein were generated automatically at the end of the run. The Ucp2 protein levels were quantified by a ratio of the area under the curve from each sample that was normalized by the corresponding area under the curve of the corresponding total protein.
# [10] = system: Dox-induced cardiotoxicity mouse model; assay: Example 3: M-mode echocardiography of cardiac function
# [11] = mouse, in vivo
# [12] = system: DOX-induced cardiotoxicity; assay: Example 1: heart weight and echocardiogram in DOX ± HNG treated mice; format: in vivo, mouse
# Method: The heart containing left and right ventricles were fixed with formalin for hematoxylin/eosin and trichrome staining and TUNEL to detect apoptotic cell. Heart sections were saved for immunohistochemistry. Pieces of left ventricle were fixed with gluteraldehyde for later mitochondria analysis by EM. Heart was snapped frozen and stored at −80 degrees (left and right atriums plus the rest of ventricles) for molecular studies (e.g. ANP/BNP).
# Echocardiogram was performed on three mice from each group on day 32, and the rest of the mice on days 34 and 38. […] However when corrected for body weight, the heart: body weight ratio was not different among the groups (FIGS. 3A & 3B.)
# [13] = cited from earlier work
# cells = conditions: compared with HN; cited from earlier work
# membrane receptor = conditions: cited from earlier work
# BAX = BAX (Homo sapiens, UniProt Q07812); conditions: cited from earlier work
# IGFBP-3 = IGFBP-3 (Homo sapiens, UniProt P17936); conditions: cited from earlier work
# [14] = system: Dox-induced cardiotoxicity mouse model; conditions: in vivo
# cardiomyocytes [15] = conditions: mouse, in vivo
# [16] = system: Atrial Natriuretic Factor (ANF); conditions: mouse, in vivo
# cardiac fibrosis [17] = conditions: mouse, in vivo
# [18] = 84 genes examined, threshold of 1.1 fold
# [19] = positive up-regulation, negative down-regulation
# [20] = echocardiogram days 32-38, vs non-treated and HNG treated mice
# Sequence of IGFBP-3 (P17936 28-291, species assumed): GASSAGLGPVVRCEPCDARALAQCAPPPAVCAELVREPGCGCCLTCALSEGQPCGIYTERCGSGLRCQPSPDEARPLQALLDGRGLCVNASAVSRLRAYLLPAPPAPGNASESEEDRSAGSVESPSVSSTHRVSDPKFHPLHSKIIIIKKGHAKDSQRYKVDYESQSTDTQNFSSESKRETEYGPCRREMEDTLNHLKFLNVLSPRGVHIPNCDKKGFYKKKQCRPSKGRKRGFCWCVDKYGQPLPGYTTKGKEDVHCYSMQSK
# Sequence of BAX (Q07812 whole entry, species assumed): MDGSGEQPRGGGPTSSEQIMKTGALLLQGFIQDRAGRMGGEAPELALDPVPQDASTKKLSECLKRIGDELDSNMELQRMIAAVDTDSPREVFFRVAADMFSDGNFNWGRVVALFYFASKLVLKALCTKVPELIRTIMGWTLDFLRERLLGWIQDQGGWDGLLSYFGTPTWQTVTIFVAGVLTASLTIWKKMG
molecule,measurement,setting,value
"COc1cccc2c1C(=O)c1c(O)c3c(c(O)c1C2=O)C[C@@](O)(C(=O)CO)C[C@@H]3O[C@H]1C[C@H](N)[C@H](O)[C@H](C)O1 [DOX, Doxorubicin]",cardiomyocytes apoptosis,cardiomyocytes [1],significantly increased cardiomyocytes apoptosis
same,incidence of congestive heart failure,[2]; cumulative dose of 400 mg/m^2,3 to 5%
same,incidence of congestive heart failure,[2]; cumulative dose of 550 mg/m^2,7 to 26%
same,mice died before the termination of the experiment,"[3]; 10 mice per group, 10 weeks",three
same,cardiac fibrosis,cardiac fibrosis [4],significantly induced a cardiac fibrosis response
same,Body weight,[5],started to lose weight at about day 8 to 10; also recorded: significant loss in weight; also recorded: decreased weight
same,Survival (mice survived / mice in group),"[5]; DOX halted after 4th injection, up to day 38-40",4/10
same,"Body weight loss, DOX vs DOX+HNG","[5]; day 29, p<0.05",lost more weight than the mice treated with DOX+HNG; also recorded: losing significantly more weight
same,number of genes down-regulated as compared to control,[6]; [18],5 genes
same,number of genes up-regulated as compared to control,[6]; [18],78 genes
same,number of genes upregulated as compared to control,"[6]; 84 genes examined, threshold of 2-fold",12 genes
same,Bbc3 Dox-induced gene expression (Fold changes as compared to control),[6]; [19],3.27 Fold changes
same,Bcl2 Dox-induced gene expression (Fold changes as compared to control),[6]; [19],2.23 Fold changes
same,Cox18 Dox-induced gene expression (Fold changes as compared to control),[6]; [19],2.01 Fold changes
same,NefI Dox-induced gene expression (Fold changes as compared to control),[6]; [19],3.07 Fold changes
same,Sfn Dox-induced gene expression (Fold changes as compared to control),[6]; [19],2.55 Fold changes
same,Slc25a17 Dox-induced gene expression (Fold changes as compared to control),[6]; [19],2.00 Fold changes
same,Slc25a20 Dox-induced gene expression (Fold changes as compared to control),[6]; [19],2.53 Fold changes
same,Slc25a21 Dox-induced gene expression (Fold changes as compared to control),[6]; [19],2.35 Fold changes
same,Slc25a22 Dox-induced gene expression (Fold changes as compared to control),[6]; [19],3.12 Fold changes
same,Slc25a23 Dox-induced gene expression (Fold changes as compared to control),[6]; [19],5.83 Fold changes
same,Ucp2 Dox-induced gene expression (Fold changes as compared to control),[6]; [19],2.03 Fold changes
same,Ucp3 Dox-induced gene expression (Fold changes as compared to control),[6]; [19],2.73 Fold changes
same,Ucp2 and Ucp3 mRNA expression,"[6]; qRT-PCR, heart",increased Ucp2 and Ucp3 mRNA expression
same,Ejection fraction (EF),"[7]; adult male mice, DOX 3 mg/week IP for 8 injections, FIG. 6",highly significant decrease in EF
same,expression levels of ANF mRNA,[8],significantly increased
same,Ucp2 protein expression,[9]; compared to control,significantly decreased Ucp2 protein expression
same,ejection fraction,[10]; 9.5 weeks after treatment,significantly decreased
same,fractional shortening,[10]; 9.5 weeks after treatment,significantly decreased
same,heart rate,[10]; 9.5 weeks after treatment,significantly decreased
same,left ventricle posterior wall thickening,[10]; 9.5 weeks after treatment,significantly decreased
same,time after Dox treatment until Dox-induced cardiac dysfunction occurred,[10]; accumulative dose of 24 mg/kg body weight in mice,≥ 8 weeks
same,body weight (BW) at the end of 10 weeks,[11],significantly decreased body weight
same,Heart weight,[12]; Example 1 mice at sacrifice,significantly lower than the non-treated and HNG treated mice; also recorded: smaller hearts than non-treated and HNG treated mice
same,ejection fraction,[12]; [20],decrease in ejection fraction; also recorded: lower ejection fraction
same,fractional ventricular shortening,[12]; [20],decrease; also recorded: lower fractional shortening
"C[C@@H](CN1CC(=O)NC(=O)C1)N1CC(=O)NC(=O)C1 [DRZ, Dexrazoxane]","Dox-induced cardiomyocytes apoptosis, effect of co-treatment","cardiomyocytes [1]; Dox-treated mice, ten weeks after treatment",no markedly protective effect
same,cardiomyocytes apoptosis,cardiomyocytes [1],did not induce significant levels of cardiomyocytes apoptosis
same,"Dox-induced BW loss, effect of co-treatment",[3]; in Dox-treated mice,attenuated the Dox-induced BW loss
same,cardiac fibrosis,cardiac fibrosis [4],no changes of fibrosis
same,"Dox-induced cardiac fibrosis, effect of co-treatment",cardiac fibrosis [4]; in Dox-treated mice,did not reduce Dox-induced cardiac fibrosis
same,testicular toxicity,[13]; has been shown,induce testicular toxicity
same,significant adverse events,[13]; patients receiving high doses of anthracyclines,decreased granulocytes and platelets
same,"Dox-induced Ucp2 and Ucp3 mRNA expression, effect of co-treatment","[6]; qRT-PCR, Dox-treated mice",reversed Dox-induced Ucp2 and Ucp3 mRNA expression to control levels
same,"DOX-induced decrease in EF, effect of co-treatment","[7]; DOX treated mice, HNG 5 mg/day IP, DRZ 60 mg/week IP",ameliorated
same,"Dox-increased ANF expression, effect of addition",[8]; added to Dox-treated mice,returned expression of ANF to control levels
same,expression levels of ANF mRNA,[8],did not significantly altered ANF transcripts
same,"Ucp2 protein suppressed by Dox, effect of co-treatment",[9]; Dox-treated mice,significantly normalized Ucp2 protein suppressed by Dox to control levels
same,"Dox-induced cardiac dysfunction, protective effect","[10]; Dox-treated mice, summary",improved heart function impaired by Dox treatment
same,"cardiac parameters (heart rate, LV posterior wall thickening, fractional shortening, ejection fraction)","[10]; without Dox, compared to controls across the treatment period",did not show any altered cardiac parameters
same,body weight (BW) at the end of 10 weeks,[11],no significant adverse effect on body weight
"HN-C8A: HN mutant, Cys8 to Ala; MAPRGFSALLLLTSEIDLPVKRRA (SEQ ID NO: 33)",Cytoprotective Action,cells,"Not effective, prevents HN self-"
same,Characteristics: membrane receptor binding,membrane receptor,Loss of membrane receptor
"HN-C8P: HN mutant, Cys8 to Pro (MAPRGFSPLLLLTSEIDLPVKRRA; UniProt Q8IVG9 1-24, looked up, variant C8P)",Cytoprotective Action,cells,"Not effective, blocks intracellular"
same,Characteristics: BAX binding,BAX,Loss of BAX binding
"HN-F6A: HN mutant, Phe6 to Ala (MAPRGASCLLLLTSEIDLPVKRRA; UniProt Q8IVG9 1-24, looked up, variant F6A)",Characteristics: IGFBP-3 binding,IGFBP-3,Loss of IGFBP-3 binding
same,Cytoprotective Action,cells,Similar/more effective than HN
"HN-L12A: HN mutant, Leu12 to Ala (MAPRGFSCLLLATSEIDLPVKRRA; UniProt Q8IVG9 1-24, looked up, variant L12A)",Cytoprotective Action,cells,"HN antagonist, forms inactive"
"HN-S7A: HN mutant, Ser7 to Ala; MAPRGFACLLLLTSEIDLPVKRRA (SEQ ID NO: 35)",Cytoprotective Action,cells,"Not effective, prevents HN self-"
same,Characteristics: membrane receptor binding,membrane receptor,Loss of membrane receptor
MAPRGFSCLLLLTGEIDLPVKRRA [HNG],"cardiac parameters (heart rate, LV posterior wall thickening, fractional shortening, ejection fraction)",[14],did not show any altered cardiac parameters
same,cardiomyocytes apoptosis,cardiomyocytes [15],did not induce significant levels of cardiomyocytes apoptosis
same,expression levels of ANF mRNA,[16],did not significantly altered ANF transcripts
same,body weight (BW) at the end of 10 weeks,"[3]; surviving mice, compared to control",no significant adverse effect on body weight
same,Body weight,[5],gained weight; also recorded: increased weight
same,cardiac fibrosis,cardiac fibrosis [17],no changes of fibrosis
